Data from paper PMC6150237, “Study of Absorption Characteristics of the Total Saponins from Radix Ilicis Pubescentis in an In Situ Single-Pass Intestinal Perfusion (SPIP) Rat Model by Using Ultra Performance Liquid Chromatography (UPLC)” (Molecules : A Journal of Synthetic Chemistry and Natural …, 2017).

Columns and labels:
rat duodenum [1] = assay: SPIP of MDQ-TS with or without EDTA (tight junction modulator); assay type: in vivo; conditions: MDQ-TS 2.5 mg/mL, EDTA 2.5 mmol·L^−1
Method: (§1) MDQ-TS perfusion samples at low, middle, and high concentration levels of 1.25, 2.5, and 5.0 mg·mL^−1 were prepared by separately dissolving MDQ-TS in the minimum amount of DMSO and diluted with K-R buffer solution. The amount of DMSO was 0.5% in the final perfusion solutions. C1, C2, C3, C4, DC1, and DC2 perfusion samples with the concentration equivalent to the amount contained in 2.5 mg·mL^−1 of MDQ-TS were individually prepared in the same way. Verapamil, amantadine and EDTA were directly dissolved in the MDQ-TS perfusate with terminal concentrations of 200 μmol·L^−1, 2.5 mmol·L^−1, and 2.5 mmol·L^−1, accordingly, and used for investigating the mechanisms involved for absorption.
(§2) In situ single-pass intestinal perfusion (SPIP) studies were performed using an experimental design adapted from the literature with some modifications. Briefly, male Sprague-Dawley rats weighing 180–220 g were acclimatized for at least one week before the experiment, and fasted for 18 h with free access to water before the perfusion experiment. Rats were anesthetized with an intraperitoneal injection of urethane (30 mg·kg^−1 body weight), and kept on a homeothermic blanket to maintain normal body temperature. The abdomen was opened with a midline longitudinal incision, and three segments of rat intestine (duodenum, jejunum, and ileum) of approximately 10 cm each were carefully cannulated on two ends with plastic tubing. Initially, the perfusion solution free of drug (37 °C) was pumped by peristaltic pump (BT100-1F, Longer Pump Co., Baoding, China) through the cannulated segments at a flow rate of 1 mL/min for approximately 30 min in order to clean out any residual debris. Secondly, the perfusion solution containing a known concentration of substance (C1, C2, C3, C4, DC1, DC2, and MDQ-TS) was perfused at 37 °C through the intestinal lumen at a constant flow rate of 0.2 mL/min. The first 20 min of period corresponds to steady state, i.e., when the substance is in equilibrium with the intestinal membrane. After steady state, samples were collected from distal portion of duodenum, jejunum and ileum at 10 min intervals (0–10, 10–20, 20–30, 30–40, 40–50, 50–60 min) in pre-weighted vials. Samples were immediately frozen at −20 °C until analysis by validated UPLC. During the experiment, care was taken to avoid disturbance of the circulatory system and the exposed segment was covered with a piece of sterilized gauze to keep it warm and moist by frequent application of warm (37 °C) saline. The intestinum tenue maintained its viability and intact state without disrupting the blood supply throughout the experimental period. Finally, animals were sacrificed after depth anesthesia by intraperitoneal injection of urethane, according to protocols for euthanasia in experimental animals. After death, the intestinal segment was removed for measurements of length and inside diameter.
(§3) The net water flux in the in situ perfusion studies (water absorption and efflux in the intestinal segment) was determined by gravimetric method. The effective absorption rate constant (Ka) and effective apparent permeability (Papp) of compounds in the intestinal segments were calculated according to the following mathematical expression:(1) Ka=(1−CoutQout/CinQin)Q/V (2) Papp=−Qln(CoutQout/CinQin)/2πrl where Cin and Cout are the concentration of test drug in the effluent perfusate through the inlet and outlet tube (μg·mL^−1), respectively. Qin and Qout represent the inlet and outlet volume of effluent perfusate (mL), respectively. Q is the volume flow rate of perfusion (mL·h^−1). V is the volume of the intestinal segment concerned (mL). 2πrl is the area of the mass transfer surface of intestinal segment concerned (cm^2). […]

[2] = Stability in outflow perfusate matrix; assay type: physicochemical; conditions: 37 °C
Method: The chromatographic method was validated for specificity, linearity and LOQ, accuracy and precision, extraction recovery, matrix, and stability. The validation parameters were studied using drug-free (blank) intestinal perfusate mixture that had passed through intestinal segments, and had been collected from five different rats. Specificity was evaluated by analyzing the intestinal perfusion blank and perfusion blank spiked with analytes to investigate the potential interferences of intestinal perfusate endogenous with the analytes; calibration and quality control (QC) samples were obtained by spiking mixed working standard solution in blank intestinal perfusion buffer. Calibration curves were constructed in the range of 20–1000 μg·mL^−1 for C1 (20, 40, 100, 200, 400, and 1000 μg·mL^−1), and 8.0–400.0 μg·mL^−1 for C2, C3, C4, DC1 and DC2 (8.0, 16.0, 40.0, 80.0, 160.0, and 400.0 μg·mL^−1). A weighted (1/x^2) linear least-squares linear regression method was used to determine the slope, intercept, and correlation coefficient; LOQ was determined by injection a series of standard solutions until the signal-to-noise (S/N) ratio was 10; Precision and accuracy were assessed at low, medium, and high concentration levels (40, 200, and 800 μg·mL^−1 for C1; 16, 80, and 320 μg·mL^−1 for C2, C3, C4, DC1, and DC2). Intra-day data was obtained by assaying six replicates at each concentration level in a day, and inter-day data was determined by analyzing QC samples in duplicates during three separate and successive days; The extraction recovery of the six analytes and IS from the outflow perfusate matrix was determined by comparing the mean peak areas of six replicates processed QC samples at each concentration level spiked before extraciton with those from outflow perfusate spiked after extraction; Matrix effect was assessed by comparing the mean peak areas of six replicates at each concentration level dissolved in the post-extracted intestinal perfusate matrix with those of neat standards (C1, C2, C3, C4, DC1, DC2, and IS) spiked in methanol at corresponding concentration levels; Stabilities of C1, C2, C3, C4, DC1, and DC2 in outflow perfusate matrix (12 h, 37 °C), processed samples (auto-sampler condition for 24 h), after freeze-thaw cycle and long-term cold storage (−20 °C, 14 days) were assayed by QC samples in six replicates at three concentration level.

[3] = Apparent oil-water partition coefficient, shake-flask method; assay type: physicochemical; conditions: n-octanol / phosphate buffer pH 1.2-9.0, 37 °C; Kow = log Co/(Ct−Co)
Method: The equilibrium partitioning of C1, C2, C3, C4, DC1, and DC2 between organic lipid and water (Kow) was determined in our study by the traditional shake-flask method (SFM). Briefly, 0.5 mL of each saponin standard working solution (100 µg·mL^−1 in water-saturated n-octanol) was accurately measured into 5 mL centrifuge tubes, and spiked with 0.5 mL of different phosphate buffer solutions (pH: 1.2, 2.0, 3.6, 5.8, 6.8, 7.4, 7.8, and 9.0), respectively. After vortex-mixing for 45 min, the tubes were kept in a temperature-stable horizontal shaking bath (37 °C) for 24 h, and then centrifuged at 13,000 rpm for 10 min. Two hundred microliters of organic supernatant solution was measured, diluted with 800 µL of methanol, and mixed well. Ten microliters of the final solution was injected into the HPLC system (detailed experimental conditions and method validation results were not shown) for determination of the drug concentration in the n-octanol phase. The Kow values of the six saponins were calculated according to the following mathematical expression:(3) Kow=logCo/Ct−Co where Ct is the total concentration of the drug, and Co is the concentration of the drug in n-octanol phase.

rat duodenum [4] = assay: SPIP of MDQ-TS with or without verapamil (P-gp inhibitor); assay type: in vivo; conditions: MDQ-TS 2.5 mg/mL; for Ka increase in comparison with non-Verapamil added group / Papp increase in comparison with non-Verapamil added group: verapamil 200 μmol·L^−1
Method: as §1, §2, §3

Compound	Ka increase in comparison with non-EDTA added group (rat duodenum [1]) [fold]	Papp increase in comparison with non-EDTA added group (rat duodenum [1])	stability in outflow perfusate matrix [2]	apparent oil-water partition coefficient (Kow) [3]	Ka increase in comparison with non-Verapamil added group (rat duodenum [4])	Papp increase in comparison with non-Verapamil added group (rat duodenum [4])	intestinal absorption in Verapamil added group (rat duodenum [4]; verapamil 200 μmol·L^−1, result in words)
C[C@@H]1CC[C@]2(C(=O)O)CC[C@]3(C)C(=CC[C@@H]4[C@@]5(C)CC[C@H](O)[C@@](C)(C(=O)O)[C@@H]5CC[C@]43C)[C@@H]2[C@]1(C)O [C1, ilexgenin A]	~1.6	about 1.7 fold	at least 12 h	−1 to 2	about 1.5 fold		
CC1CCC2(C(=O)OC3OC(CO)C(O)C(O)C3O)CCC3(C)C(=CCC4C5(C)CCC(O)C(C)(C(=O)O)C5CCC43C)C2C1(C)O (stereo not drawn) [C2, ilexsaponin A1]	~1.6	~1.2 fold	at least 12 h	−1 to 2	~4.2 fold	about 2.3 fold	
C[C@H]1CC[C@]2(C(=O)O)CC[C@]3(C)C(=CC[C@@H]4[C@@]5(C)CC[C@H](O[C@@H]6OC[C@@H](O)[C@H](O)[C@H]6O[C@@H]6O[C@H](CO)[C@@H](O)[C@H](O)[C@H]6O)C(C)(C)[C@@H]5CC[C@]43C)[C@@H]2[C@]1(C)O [C3, ilexsaponin B1]	~1.5	~1.9 fold	at least 12 h	−1 to 2	~1.2 fold	~1.4 fold	
C[C@@H]1O[C@@H](O[C@H]2[C@H](O[C@H]3[C@H](O[C@H]4CC[C@]5(C)[C@H]6CC=C7[C@H]8[C@](C(=O)O)(CC[C@H](C)[C@@]8(C)O)CC[C@@]7(C)[C@]6(C)CC[C@H]5C4(C)C)OC[C@@H](O)[C@@H]3O)O[C@H](CO)[C@@H](O)[C@@H]2O)[C@H](O)[C@H](O)[C@H]1O [C4, ilexsaponin B2]	~1.5	~1.5 fold	at least 12 h	−1 to 2	about 1.5 fold		
C[C@@H]1O[C@@H](O[C@H]2[C@H](O[C@H]3[C@H](O[C@H]4CC[C@]5(C)[C@H]6CC=C7[C@H]8[C@](C(=O)O[C@@H]9O[C@H](CO)[C@@H](O)[C@H](O)[C@H]9O)(CC[C@H](C)[C@@]8(C)O)CC[C@@]7(C)[C@]6(C)CC[C@H]5C4(C)C)OC[C@@H](O)[C@@H]3O)O[C@H](CO)[C@@H](O)[C@@H]2O)[C@H](O)[C@H](O)[C@H]1O [DC2, ilexoside O]	~3.0	~2.1 fold	at least 12 h	−1 to 2			could not be absorbed by the small intestine at all
ilexsaponin B3 [DC1]	~1.4	~1.4 fold	at least 12 h	−1 to 2	~2.9 fold	~3.4 fold	
